Experimental data: the supplement of paper PMC11562712

Test: first-order primary biodegradation rate constant k (sorption-corrected, fDis-corrected) (d-1); higher = faster biodegradation
Description: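 Modified OECD 309 water-sediment test. River water plus sieved sediment (50 g wet solid/L) from European river segments (DE, CH, ES, EL) was spiked with a mixture of 129 compounds at 1 ug/L each and incubated in the dark at river temperature for 10 days. The water phase was analysed by UHPLC-Orbitrap-MS. The first-order primary biodegradation rate constant k (d-1) is k_observed, corrected for dissipation in sterile sorption controls and divided by the dissolved fraction fDis; it was fitted over 3 replicate incubations. Invalid fits (p > 0.05, n < 5, not available, concentration increase) are excluded.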

[1] = river segment: Germany (DE) H_Contam, incubation temperature 24 °C
[2] = river segment: Germany (DE) T_Contam, incubation temperature 24 °C
[3] = river segment: Germany (DE) T_Pris, incubation temperature 24 °C
[4] = river segment: Greece (EL) A_Contam, incubation temperature 19 °C
[5] = river segment: Greece (EL) G_Pris, incubation temperature 19 °C
[6] = river segment: Greece (EL) L_Contam, incubation temperature 19 °C
[7] = river segment: Spain (ES) C_Contam, incubation temperature 24 °C
[8] = river segment: Spain (ES) F_Pris_Salt, incubation temperature 24 °C
[9] = river segment: Spain (ES) L_Contam, incubation temperature 24 °C
[10] = river segment: Switzerland (CH) R_Contam, incubation temperature 17 °C
[11] = river segment: Switzerland (CH) U_Pris, incubation temperature 17 °C
[12] = river segment: Greece (EL) G_Contam, incubation temperature 19 °C
[13] = river segment: Switzerland (CH) U_Contam, incubation temperature 17 °C
[14] = river segment: Spain (ES) B_Contam, incubation temperature 24 °C
[15] = river segment: Switzerland (CH) C_Contam, incubation temperature 17 °C

Row | Compound | first-order primary biodegradation rate constant k [1] | first-order primary biodegradation rate constant k [2] | first-order primary biodegradation rate constant k [3] | first-order primary biodegradation rate constant k [4] | first-order primary biodegradation rate constant k [5] | first-order primary biodegradation rate constant k [6] | first-order primary biodegradation rate constant k [7] | first-order primary biodegradation rate constant k [8] | first-order primary biodegradation rate constant k [9] | first-order primary biodegradation rate constant k [10] | first-order primary biodegradation rate constant k [11] | first-order primary biodegradation rate constant k [12] | first-order primary biodegradation rate constant k [13] | first-order primary biodegradation rate constant k [14] | first-order primary biodegradation rate constant k [15]
1 | CC1(C(=O)Nc2ccc(O)c(Cl)c2Cl)CCCCC1 [Fenhexamid] | 0.151 | 0.656 | 0.165 | 0.189 | 0.641 | 0.493 | 0.109 | 0.0571 | 0.189 | 0.0432 | 0.988 | – | – | – | –
2 | O=C(NCC1CCCCN1)c1cc(OCC(F)(F)F)ccc1OCC(F)(F)F (stereo not given) [Flecainide] | – | 0.116 | 0.0199 | 0.228 | – | 0.0674 | 1.31 | – | 0.0814 | – | – | 0.0658 | – | – | –
3 | OC(Cn1cncn1)(Cn1cncn1)c1ccc(F)cc1F [Fluconazole] | 0.024 | 0.00573 | – | – | – | 0.0588 | – | – | – | – | – | 0.311 | 0.00361 | – | –
4 | CC(C)N(C(=O)COc1nnc(C(F)(F)F)s1)c1ccc(F)cc1 [Flufenacet] | 0.0427 | 0.151 | – | 0.0323 | 0.0751 | – | 0.0442 | – | 0.0865 | – | 0.105 | – | 0.0707 | 0.0399 | –
5 | CNCCC(Oc1ccc(C(F)(F)F)cc1)c1ccccc1 (stereo not given) [Fluoxetine] | 0.797 | – | 3.25 | – | – | – | – | – | – | – | 2.14 | – | 4.2 | – | 0.0571
6 | NS(=O)(=O)c1cc(C(=O)O)c(NCc2ccco2)cc1Cl [Furosemide] | 0.0829 | 0.171 | 0.0275 | 0.168 | 0.0968 | 0.114 | 0.149 | 0.0149 | 0.229 | 0.336 | 0.0826 | – | 0.155 | 0.359 | 0.0405
7 | NCC1(CC(=O)O)CCCCC1 [Gabapentin] | 0.0147 | 0.183 | – | 0.0518 | 0.0145 | – | 0.119 | 0.119 | 0.235 | 0.109 | 0.15 | – | 0.0703 | 0.811 | –
8 | Cc1ccc(C)c(OCCCC(C)(C)C(=O)O)c1 [Gemfibrozil] | 0.143 | 0.278 | 0.133 | 0.37 | 0.227 | 0.152 | 0.26 | – | 0.327 | – | 1.01 | – | – | 0.371 | 0.237
9 | O=[N+]([O-])/N=C1\NCCN1Cc1ccc(Cl)nc1 [Imidacloprid] | 0.029 | 0.0495 | – | – | – | – | 0.0128 | – | – | – | 0.00932 | – | – | – | –
10 | Cc1ccc(C(C)NC(=O)[C@@H](NC(=O)OC(C)C)C(C)C)cc1 (stereo not given in full) [Iprovalicarb] | 0.251 | 0.275 | 0.0361 | 0.258 | 0.138 | 0.096 | 0.115 | – | 0.203 | 0.123 | 0.146 | 0.16 | 0.167 | 0.211 | 0.0585
11 | CCCCC1=NC2(CCCC2)C(=O)N1Cc1ccc(-c2ccccc2-c2nnn[nH]2)cc1 [Irbesartan] | 0.161 | – | – | – | 0.0725 | – | – | – | 0.426 | – | – | – | 0.0556 | – | –
12 | CC(C)c1ccc(NC(=O)N(C)C)cc1 [Isoproturon] | 0.0107 | 0.0814 | – | 0.072 | 0.111 | 0.0309 | 0.0102 | – | 0.0402 | – | 0.0209 | – | 0.0187 | – | –
13 | CC(C(=O)O)c1cccc(C(=O)c2ccccc2)c1 (stereo not given) [Ketoprofen] | 0.108 | 0.441 | 0.226 | 0.537 | 0.36 | 0.285 | 0.269 | 0.0247 | 0.368 | 0.829 | 2.62 | 0.0301 | 1.21 | 0.235 | 1.07
14 | Nc1nnc(-c2cccc(Cl)c2Cl)c(N)n1 [Lamotrigine] | – | 0.0823 | – | – | 0.0465 | 0.0519 | – | – | – | – | – | 0.337 | – | – | –
15 | c1ccc([C@H]2CN3CCSC3=N2)cc1 [Levamisole] | – | 0.512 | 0.0857 | 0.193 | 0.133 | 0.21 | 0.0263 | – | 0.0585 | 0.0447 | 0.0682 | – | 0.0845 | 0.0276 | 0.0196
16 | CC[C@@H](C(N)=O)N1CCCC1=O [Levetiracetam] | 0.229 | 0.49 | 0.0839 | 0.382 | 0.188 | – | 0.236 | – | 0.262 | 0.35 | – | – | – | 0.958 | –
17 | CCN(CC)CC(=O)Nc1c(C)cccc1C [Lidocaine] | 0.0105 | 0.00344 | – | 0.0177 | 0.00116 | 0.0298 | 0.287 | – | 0.118 | 0.00379 | 0.0138 | – | 0.0121 | 0.0307 | 0.00975
18 | CC(=O)NC[C@H]1CN(c2ccc(N3CCOCC3)c(F)c2)C(=O)O1 [Linezolid] | 0.0119 | 0.0934 | 0.0124 | 0.285 | 0.308 | 0.262 | 0.0212 | – | 0.0693 | 0.0142 | 0.103 | 0.00542 | 0.0268 | 0.0257 | 0.0127
